In publication PMC2276626, “Structure-Based Inhibitors Exhibit Differential Activities against Helicobacter pylori and Escherichia coli Undecaprenyl Pyrophosphate Synthases” (Journal of Biomedicine and Biotechnology, 2008):

Legend:
[1] = molecular target: T1, Undecaprenyl pyrophosphate synthase (UPPS) (Escherichia coli, UniProt P60472); experiment: enzyme activity dose-response with […] UPPS; type: biochemical
T1 construct: gene ispU

[2] = molecular target: T2, Undecaprenyl pyrophosphate synthase (UPPS) (Helicobacter pylori, UniProt P55984); experiment: enzyme activity dose-response with […] UPPS; type: biochemical
T2 sequence (P55984 1-234): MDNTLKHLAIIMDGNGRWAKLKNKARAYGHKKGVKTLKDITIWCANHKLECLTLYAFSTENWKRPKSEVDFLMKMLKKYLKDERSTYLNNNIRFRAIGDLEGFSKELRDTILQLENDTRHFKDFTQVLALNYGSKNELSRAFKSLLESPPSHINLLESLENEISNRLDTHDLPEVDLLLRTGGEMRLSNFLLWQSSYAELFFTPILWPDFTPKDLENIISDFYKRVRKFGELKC

[3] = molecular target: Undecaprenyl pyrophosphate synthase (UPPS) (Helicobacter pylori, UniProt P55984, C234A)
[4] = test system: C=C(C)CCO[P@@](=O)(O)OP(=O)(O)O; experiment: steady-state enzyme kinetics (Km); type: biochemical, Helicobacter pylori; conditions: Mg2+
[5] = test system: CC(C)=CCC/C(C)=C/CC/C(C)=C/CO[P@@](=O)(O)OP(=O)(O)O; experiment: steady-state enzyme kinetics (Km); type: biochemical, Helicobacter pylori; conditions: Mg2+
[6] = substrate: C=C(C)CCO[P@@](=O)(O)OP(=O)(O)O; experiment: steady-state enzyme kinetics (Km); type: biochemical, Helicobacter pylori; conditions: Mg2+; remark: listed apart in the source
[7] = substrate: CC(C)=CCC/C(C)=C/CC/C(C)=C/CO[P@@](=O)(O)OP(=O)(O)O; experiment: steady-state enzyme kinetics (Km); type: biochemical, Helicobacter pylori; conditions: Mg2+; remark: listed apart in the source

T1 sequence (P60472 whole entry): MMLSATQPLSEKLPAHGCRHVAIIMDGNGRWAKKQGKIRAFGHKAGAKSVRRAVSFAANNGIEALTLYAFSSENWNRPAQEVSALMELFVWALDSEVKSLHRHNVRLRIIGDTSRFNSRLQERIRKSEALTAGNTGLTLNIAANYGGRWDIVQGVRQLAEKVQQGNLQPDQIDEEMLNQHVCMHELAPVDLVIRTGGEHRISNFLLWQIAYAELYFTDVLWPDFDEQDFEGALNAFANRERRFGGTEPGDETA

O=S(=O)(CS(=O)(=O)Nc1nc2ccc(Cl)cc2s1)Nc1nc2ccc(Cl)cc2s1 [BTB06061] gave an IC50 [1] of 71 µM and an IC50 [2] of 350 µM.

With O=P(O)(O)OP(=O)(O)O [pyrophosphate] the “X-ray crystal structure at 2.5 Å (crystals soaked with FsPP, IPP and MgCl2); only” value [3] was “only the pyrophosphate of FsPP was found in the complex structure”.

With “Undecaprenyl pyrophosphate synthase (UPPS) (Helicobacter pylori 26695; C234A)” the Km [4] was 9.6 ± 0.2 µM and the Km [5] was 0.15 ± 0.04 µM.

NS(=O)(=O)c1cccc(-c2ccc(C3Nc4ccccc4-c4nc5ccccc5n43)o2)c1 (centres unmarked) [HTS04781] gave an IC50 [2] of 362 µM.

B1: Undecaprenyl pyrophosphate synthase (UPPS) (Helicobacter pylori 26695) (protein)
chain: T2 sequence (P55984 1-234)
Molecule B1 has a Km [6] of 9.2 ± 0.1 µM and a Km [7] of 0.11 ± 0.02 µM.
